Patent US6727275B2, “Pyrrolidinone derivatives” (UCB, S.A./N.V., priority 2001, dated 2004)

Experiments:
CCR2 [1] = target: T1, CCR2 (Homo sapiens, UniProt P41597); experiment: Chemotaxis assay: MCP-1 induced migration of THP-1 cells; type: cell-based; design: endogenous in cells; host or cells: THP-1 cells; conditions: 3 nM MCP-1, 37° C. for 2 hr, read-out: Inhibition of cell chemotaxis, IC50
T1 sequence (P41597 1-360 isoform P41597-2): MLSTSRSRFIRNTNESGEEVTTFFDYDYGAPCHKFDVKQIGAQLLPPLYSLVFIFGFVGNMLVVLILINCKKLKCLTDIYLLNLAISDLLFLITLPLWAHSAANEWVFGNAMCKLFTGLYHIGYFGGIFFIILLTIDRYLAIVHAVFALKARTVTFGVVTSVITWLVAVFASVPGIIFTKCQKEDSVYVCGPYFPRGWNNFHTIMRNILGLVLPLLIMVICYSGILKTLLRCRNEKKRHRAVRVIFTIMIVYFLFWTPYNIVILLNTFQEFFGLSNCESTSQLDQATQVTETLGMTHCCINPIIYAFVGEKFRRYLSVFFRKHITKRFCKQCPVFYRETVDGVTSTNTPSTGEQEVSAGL
Method: Antagonism of CCR2 function is determined by a chemotaxis assay. MCP-1 is prepared in buffer (Hanks+0.1% human serum albumin) at 3 nM concentration and aliquoted into the bottom chambers of a 96-well chemotaxis plate (Neuroprobe). THP-1 cells are suspended in the same buffer at 1×10^7 cells/ml and compound added at various concentrations to the aliquots of cells. The cell and compound mixture is added to the top of the polycarbonate membrane (5 μm pore diameter) and the chemotaxis plate incubated at 37° C. for 2 hr. After the unmigrated cells are scraped off the top of the filter, the plate is gently centrifuged and the membrane removed. Cells which migrate to the bottom chamber are quantitated by counting with a hemacytometer. Spontaneous chemotaxis is determined by measuring cell migration in the absence of chemokine. Chemotaxis of a positive control is determined by measuring cell migration without compound. Inhibition of cell chemotaxis is determined as an IC50.

CCR2 [2] = target: T1, CCR2; experiment: Binding assay: inhibition of 125I-MCP-1 binding to THP-1 cells; design: CCR2 is also expressed in the human monocytic cell line THP-1; endogenous in cells; host or cells: THP-1 (human monocytic cell line), whole cells; conditions: THP-1 cells, 0.1 nM 125I-MCP-1, 1 hr at room temperature; read-out: Inhibition of 125I-MCP-1 binding to THP-1 cells, IC50
Method: Antagonism of the CCR2 receptor is determined by a binding assay using the human monocytic cell line THP-1. Cells are suspended in assay buffer (RPMI+1% BSA+25 mM HEPES) at 3×10^6 cells/ml and an aliquot (180 μl) added to a 0.5 ml siliconized Eppendorf tube. […] After incubation for 1 hr at room temperature, the cell suspension is centrifuged through oil and the cell pellets counted to quantitate cell-bound ligand. Nonspecific (NS) binding of radioligand is determined by the addition of 100 nM cold MCP-1. Control binding is determined by the addition of buffer without compound.

| SMILES | IC50 (CCR2 [1]) | IC50 (CCR2 [2]) | melting point |
| --- | --- | --- | --- |
| CCOC(=O)OC1=C(C(C)=O)[C@@H](C2CCCCC2)N(c2ccc(Cl)cc2F)C1=O [Compound P1, (5R)-4-acetyl-1-(4-chloro-2-fluorophenyl)-5-cyclohexyl-2-oxo-2,5-dihydro-1H-pyrrol-3-yl ethyl carbonate] |  |  | 74 °C |
| CC(=O)C1=C(O)C(=O)N(c2ccc(Cl)c([N+](=O)[O-])c2)C1C1CCCCC1 (racemic) [Compound 66, 4-acetyl-1-(4-chloro-3-nitrophenyl)-5-cyclohexyl-3-hydroxy-1,5-dihydro-2H-pyrrol-2-one] |  | ≤ 5 µM |  |
| CC(=O)C1=C(O)C(=O)N(c2c(F)cc(Cl)cc2F)C1C1CCCCC1 (racemic) [Compound 120, 4-acetyl-1-(4-chloro-2,6-difluorophenyl)-5-cyclohexyl-3-hydroxy-1,5-dihydro-2H-pyrrol-2-one] |  | ≤ 5 µM |  |
| CC(=O)C1=C(O)C(=O)N(c2ccc3c(c2)CCC3)C1C1CCCCC1 (racemic) [Compound 63, 4-acetyl-5-cyclohexyl-1-(2,3-dihydro-1H-inden-5-yl)-3-hydroxy-1,5-dihydro-2H-pyrrol-2-one] |  | ≤ 5 µM |  |
| CC(=O)C1=C(O)C(=O)N(c2ccc(C)c(Br)c2)C1C1CCCCC1 (racemic) [Compound 73, 4-acetyl-1-(3-bromo-4-methylphenyl)-5-cyclohexyl-3-hydroxy-1,5-dihydro-2H-pyrrol-2-one] |  | ≤ 5 µM |  |
| CC(=O)C1=C(O)C(=O)N(c2ccc(Cl)cn2)C1C1CCCCC1 (racemic) [Compound 172, 4-acetyl-1-(5-chloro-2-pyridinyl)-5-cyclohexyl-3-hydroxy-1,5-dihydro-2H-pyrrol-2-one] |  | ≤ 5 µM |  |
| CC(=O)C1=C(O)C(=O)N(c2ccc(C)c(C)c2)C1CC(C)(C)C (racemic) [Compound 116, 4-acetyl-1-(3,4-dimethylphenyl)-3-hydroxy-5-neopentyl-1,5-dihydro-2H-pyrrol-2-one] |  | ≤ 5 µM |  |
| CC(=O)C1=C(O)C(=O)N(c2ccc(C)cc2)C1c1ccc(Br)cc1 (racemic) [Compound 20, 4-acetyl-5-(4-bromophenyl)-3-hydroxy-1-(4-methylphenyl)-1,5-dihydro-2H-pyrrol-2-one] |  | ≤ 5 µM |  |
| CC(=O)C1=C(O)C(=O)N(c2ccc(Cl)c(C)c2)[C@@H]1C1CCCC1 [Compound 135, (R)-4-acetyl-1-(4-chloro-3-methylphenyl)-5-cyclopentyl-3-hydroxy-1,5-dihydro-2H-pyrrol-2-one] |  | ≤ 5 µM |  |
| CC(=O)C1=C(O)C(=O)N(Cc2ccccc2)C1c1ccco1 (racemic) [Compound 8, 4-acetyl-1-benzyl-5-(2-furyl)-3-hydroxy-1,5-dihydro-2H-pyrrol-2-one] |  | ≤ 5 µM |  |
| CC(=O)C1=C(O)C(=O)N(c2ccc(Cl)cc2)[C@@H]1C12CC3CC(CC1C3)C2 [Compound 156, (R)-4-acetyl-1-(4-chlorophenyl)-3-hydroxy-5-tricyclo[3.3.1.0˜3,7˜]non-3-yl-1,5-dihydro-2H-pyrrol-2-one] | ≤ 5 µM | ≤ 5 µM |  |
| CC(=O)C1=C(O)C(=O)N(c2ccc(Cl)cc2)C1CC1CCCC1 (racemic) [Compound 134, 4-acetyl-1-(4-chlorophenyl)-5-(cyclopentylmethyl)-3-hydroxy-1,5-dihydro-2H-pyrrol-2-one] |  | ≤ 5 µM |  |
| CC(=O)C1=C(O)C(=O)N(c2ccc(C)c(F)c2)C1C1CCCCC1 (racemic) [Compound 47, 4-acetyl-5-cyclohexyl-1-(3-fluoro-4-methylphenyl)-3-hydroxy-1,5-dihydro-2H-pyrrol-2-one] |  | ≤ 5 µM |  |

Continued, values first:

| IC50 (CCR2 [1]) | IC50 (CCR2 [2]) | melting point | SMILES |
| --- | --- | --- | --- |
| ≤ 5 µM | ≤ 5 µM |  | CC(=O)C1=C(O)C(=O)N(c2ccc(Cl)cc2)C1C1CCCCC1 (racemic) [Compound 24, 4-acetyl-1-(4-chlorophenyl)-5-cyclohexyl-3-hydroxy-1,5-dihydro-2H-pyrrol-2-one] |
| ≤ 5 µM | ≤ 5 µM |  | CC(=O)C1=C(O)C(=O)N(c2ccc(Cl)c(C)c2)C1C1CCCCC1 (racemic) [Compound 53, 4-acetyl-1-(4-chloro-3-methylphenyl)-5-cyclohexyl-3-hydroxy-1,5-dihydro-2H-pyrrol-2-one] |
| ≤ 5 µM | ≤ 5 µM |  | CC(=O)C1=C(O)C(=O)N(c2ccc(C)cc2)C1C1CCCCC1 (racemic) [Compound 10, 4-acetyl-5-cyclohexyl-3-hydroxy-1-(4-methylphenyl)-1,5-dihydro-2H-pyrrol-2-one] |
| ≤ 5 µM | ≤ 5 µM |  | CC(=O)C1=C(O)C(=O)N(c2ccc(Cl)c(C)c2)C1C1CCCC1 (racemic) [Compound 69, 4-acetyl-1-(4-chloro-3-methylphenyl)-5-cyclopentyl-3-hydroxy-1,5-dihydro-2H-pyrrol-2-one] |
|  | ≤ 5 µM |  | CC(=O)C1=C(O)C(=O)N(c2ccc(C)cc2F)C1C1CCCCC1 (racemic) [Compound 54, 4-acetyl-5-cyclohexyl-1-(2-fluoro-4-methylphenyl)-3-hydroxy-1,5-dihydro-2H-pyrrol-2-one] |
|  | ≤ 5 µM |  | CC(=O)C1=C(O)C(=O)N(c2ccc(C)cc2)C1C1CC2C=CC1C2 (stereo not drawn) [Compound 79, 4-acetyl-5-bicyclo[2.2.1]hept-5-en-2-yl-3-hydroxy-1-(4-methylphenyl)-1,5-dihydro-2H-pyrrol-2-one] |
|  | ≤ 5 µM |  | COC1CCC(C2C(C(C)=O)=C(O)C(=O)N2c2ccc(Cl)cc2)CC1 (racemic) [Compound 132, 4-acetyl-1-(4-chlorophenyl)-3-hydroxy-5-(4-methoxycyclohexyl)-1,5-dihydro-2H-pyrrol-2-one] |
|  | ≤ 5 µM |  | C=C1CCC(C2C(C(C)=O)=C(O)C(=O)N2c2ccc(Cl)cc2F)CC1 (racemic) [Compound 153, 4-acetyl-1-(4-chloro-2-fluorophenyl)-3-hydroxy-5-(4-methylenecyclohexyl)-1,5-dihydro-2H-pyrrol-2-one] |
|  | ≤ 5 µM |  | CC(=O)C1=C(O)C(=O)N(c2ccc(C)cc2)C1C1C=CCCC1 (stereo not drawn) [Compound 50, 4-acetyl-5-(cyclohex-2-en-1-yl)-3-hydroxy-1-(4-methylphenyl)-1,5-dihydro-2H-pyrrol-2-one] |
